Data on three molecules can be found in patent US20070093894A1, “Incorporation of antimicrobial combinations onto devices to reduce infection” (Baylor College of Medicine, priority 2005, published 2007).

What all share (assay type): cell-based
Test [1] concerns Staphylococcus epidermidis. Briefly: Zone of inhibition on agar, antibiotic-coated polyurethane central venous catheter segments. The following applies: 7-french polyurethane central venous catheter segment 10x2 mm, coating solution 100 mg/ml of each antibiotic, long axis parallel to agar; for zone of inhibition at 100000 µg/mL: Staphylococcus epidermidis. As to the method:
The device used in this example is a 7-french, polyurethane central venous catheter. Antibiotics were incorporated onto devices by using a patented method (U.S. Pat. No. 6,589,591) that utilized coating solutions that contained 100 mg/ml of minocycline; 100 mg/ml tobramycin; 100 mg/ml gentamicin; 100 mg/ml minocycline and 100 mg/ml tobramycin (minocycline dissolved first); or 100 mg/ml minocycline and 100 mg/ml gentamicin (minocycline dissolved first). The tested catheter segments were 10 mm (long)×2 mm (wide). The cather segments were placed onto agar with their long axis parerrel to the agar. All zone of inhibition are expressed in mm, and table 2 summarizes the results of the zones of inhibition.

The test system of test [2] is Staphyulococcus aureus (gram positive). Briefly: Zone of inhibition on agar, antibiotic-coated composite hernia patch segments. The following applies: hernia patch (polypropylene mesh/PTFE) segment 10x10x2 mm, coating solution 100 mg/ml of each antibiotic, long axis perpendicular to agar. As to the method:
(§1) The device used in this example is a composite hernia patch with polypropylene mesh on one side and polytetrafluoroethylene (PTFE) on the other side. Antibiotics were incorporated onto devices by using a patented method (U.S. Pat. No. 6,589,591) that utilized coating solutions that contained 100 mg/ml of minocycline; 100 mg/ml tobramycin; 100 mg/ml gentamicin; 100 mg/ml minocycline and 100 mg/ml tobramycin (minocycline dissolved first); or 100 mg/ml minocycline and 100 mg/ml gentamicin (minocycline dissolved first). The tested square device segments were 10 mm (long)×10 mm (wide)×2 mm (thick). The device segments were placed onto agar with their long axis perpendicular to the agar (i.e. only 2 mm of the segment was in contact with the agar). All zone of inhibition are expressed in mm, and table 1 summarizes the results of the zones of inhibition.

Test [3] deals with Escherichia coli (gram negative). Described as above. Conditions: hernia patch (polypropylene mesh/PTFE) segment 10x10x2 mm, coating solution 100 mg/ml of each antibiotic, long axis perpendicular to agar; for zone of inhibition at 100000 µg/mL: Escherichia coli. As for the experimental part: as §1
For test [4], the system named is Enterococcus faecalis (gram positive). Described as above. The following applies: hernia patch (polypropylene mesh/PTFE) segment 10x10x2 mm, coating solution 100 mg/ml of each antibiotic, long axis perpendicular to agar; for zone of inhibition at 100000 µg/mL: Enterococcus faecalis. As to the method: as §1

For the molecule gentamicin, the “zone of inhibition, Staphylococcus epidermidis” value in test [1] is 6 mm. For the same molecule, the “zone of inhibition, Staphyulococcus aureus (gram positive)” value in test [2] turned out to be 14 mm. Further, the “zone of inhibition, Escherichia coli (gram negative)” value in test [3] amounted to 11 mm. Moreover, the “zone of inhibition, Enterococcus faecalis (gram positive)” value in test [4] stood at 0 mm.

As for `NC[C@H]1O[C@H](O[C@H]2[C@H](O)[C@@H](O[C@H]3O[C@H](CO)[C@@H](O)[C@H](N)[C@H]3O)[C@H](N)C[C@@H]2N)[C@H](N)C[C@@H]1O` [Tobramycin, tobramycin], the zone of inhibition at 100000 µg/mL stood at 14 mm in test [1], 12 mm in test [2], 18 mm in test [3] and 9 mm in test [4].

Take `CN(C)c1ccc(O)c2c1C[C@H]1C[C@H]3[C@H](N(C)C)C(O)=C(C(N)=O)C(=O)[C@@]3(O)C(O)=C1C2=O` [Minocycline, minocycline]: the zone of inhibition at 100000 µg/mL in test [1] turned out to be 30 mm; in test [2], 11 mm; in test [3] it was 3 mm; in test [4] it was 3 mm.

A word on the zone of inhibition: it is the size of the clear area around the sample on an inoculated plate.
